# Patent US9303069B2, “Peptides for treating cancer” (University of Mississippi Medical Center, priority 2014, dated 2016)
# Read-outs that look alike come from different tables or passages of the source.
# Assays:
# [1] = system: SKOV3 cells; type: cell-based, human; conditions: then cisplatin 24 hours, read-out: IC50 of cisplatin (survival)
# Procedure: Thus, a peptide (hereafter IRIS peptide) composed of a cell/nucleus penetrating signal (FIG. 26) fused to BRCA1-IRIS intron 11 (FIG. 26) was synthesized. Equal numbers of HOSE, HOSE/IRIS, SKOV3, OVCAR3, OVCAR420 and OV-90 cells were grown in the presence of increasing concentrations of IRIS peptide for 48 hours.
# To investigate the contribution of ErbB2 and TrkB to BRCA1-IRIS-induced cisplatin resistance, equal numbers of SKOV3 cells were either depleted from BRCA1-IRIS, ErbB2 or TrkB using specific siRNAs for 48 hours before they were (i) exposed to increasing concentrations of cisplatin for another 24 hours or (ii) exposed to IRIS peptide, ErbB2 inhibitor (CP-724714), TrkB inhibitor (K252a) or both for 24 hours, before they were exposed to increasing concentrations of cisplatin for another 24 hours.
# Cell viability measurement. Cell viability under different experimental conditions was determined using the MTS assay […]. Briefly, SKOV3, OVACAR3, HOSE and HOSE/IRIS cells (2.5×10^4 cells per well) were seeded in 96 well plates and incubated overnight at 37° C. in 10% humidified CO2 atmosphere in varying concentrations of IRIS peptide, or inhibitors of ErbB2 (CP-724714), EGFR (Erlotinib), TrkB (K252a), JNK (SP600125), p38 (SB203580), ERK (PD98059) and PI3′K/AKT (LY294002) inhibitors for 24 hours at 37° C. Cell Titer 96® Aqueous (Promega, Madison, Wis., USA) was used to measure viability following manufactures instructions. Cell viability (%) was expressed as a ratio to control cells×100. Growth inhibition was also determined by manually counting cells in five different microscopic fields. Change in cell numbers (fold) was expressed as a ratio to control cells×100. All experiments were done in at least triplicates, three different times. * is p≦0.05, ** is p≦0.001 and *** is p≦0.0001.
# Transfections of siRNA. siRNAs for human ErbB2 and TrkB were purchased from Ambion and Santa Cruz Biotechnology, USA. Custom synthesized siRNA against BRCA1 IRIS was used. siRNA against luciferase gene was used as the negative control. Sub-confluent cells were transfected in 6- or 96-well plates with ErbB2 (100 nM), TrkB (100 nM), BRCA1 IRIS (200 nM) or control siRNA using Oligofectamine™ reagent (GibcoBRL Inc, USA) following the instructions of the manufacturer. Protein expression was tested by Western blot after 72 hours of siRNA transfection. Cell viability was evaluated by MTS or by manual counting after 72 hours of siRNA exposure alone or in combination with cisplatin exposure (for an additional 24 hours).
# [2] = system: BRCA1-IRIS; assay: BRCA1-IRIS expression in ovarian cells (Western analysis); type: cell-based, human; conditions: 10, 20 or 30 μM of cisplatin for 24 hours
# Description: At these low concentrations of cisplatin BRCA1-IRIS expression was induced in HOSE cells and remained high in HOSE/IRIS cells (FIG. 17). […] Cell lines expressing the lowest levels of BRCA1-IRIS (i.e.
# [3] = system: BRCA1-IRIS, TrkB, ErbB2, AKT, p-AKT, p-FOXO, Cyclin D1, Bcl-2 and survivin; assay: Expression of growth and survival proteins in HOSE and HOSE/IRIS cells (Western); type: cell-based, human; conditions: IRIS peptide 5 μM, cisplatin 10 μM, combination 2.5 μM IRIS peptide + 5 μM cisplatin
# Description: HOSE cells overexpressing IRIS show a higher degree of resistance to cisplatin than HOSE cells (compare blue to black line in FIG. 30).
# [4] = system: SKOV3 tumors; assay: In vivo efficacy on established SKOV3 tumors; parameters: species or system mice; conditions: day 16; cisplatin 5 mg/kg i.p., IRIS peptide 10 mg/kg i.t., every third day, four times
# Procedure: Further, to determine whether IRIS peptide could have any efficacy in vivo and/or whether it sensitizes ovarian tumors to low, clinically relevant concentrations of cisplatin, four sets of nude mice (n=6 each) were subcutaneously injected with SKOV3 cells. Ten days later, when tumors were ˜250 mm^3 in volume, one group was treated with controls (i.e. DMSO delivered i.p. and scrambled peptide delivered directly into the tumors, i.t.), a second group was treated with cisplatin (5 mg/kg, delivered i.p.), a third group was treated with IRIS peptide (10 mg/kg, injected i.t.), and a fourth group was treated with both. Treatments were delivered every third day for a total of four times. For the next 16 days, tumors were measured daily with a caliper. Mice were then sacrificed, and their tumors or their remnants were taken.
# Efficacy of BRCA1-IRIS inhibitory peptide, in vivo. Six to eight week old female athymic SCID mice were injected subcutaneously with 2.5×10^6 SKOV3 cells in the flank region. Their respective tumor growth was measured with a caliper. When the tumor volume reached 250 mm^3, mice were randomly grouped into four groups. One group (control) was treated with scrambled peptide (10 mg/kg) and DMSO. A second was treated with BRCA1-IRIS inhibitory peptide (10 mg/kg, body weight). […] Change in tumor volume was measured to monitor the efficacy of the treatment. […]
# [5] = system: BRCA1-IRIS and survivin; assay: IHC of SKOV3 tumors for BRCA1-IRIS and survivin; type: in vivo, mice; conditions: SKOV3 tumors after treatment
# Description: Isolated tumors were mounted, sectioned and IHC stained for BRCA1-IRIS and survivin. […] It is possible that SKOV3 contain a heterogeneous population of cells that differ in their BRCA1-IRIS expression and thus that the remaining tumors are from those expressing no or low BRCA1-IRIS.
# Immunohistochemistry (IHC). Ovarian tissue microarrays comprised of normal, cancer and metastatic tissues were purchased from US Biomax, Inc. Paraffin-embedded tissue sections were de-waxed in xylene and rehydrated in alcohol. Antigen-retrieval for FOXO3a and survivin was performed by heating the slides in citrate buffer (10 μM, pH 6.0) using microwave for 10 minutes. Slides were then cooled to room temperature (RT) and washed with water followed by PBS for 15 minutes each. Antigen-retrieval for BRCA1-IRIS was performed by incubating the slides in pepsin (10 μM) for 20 minutes at 37° C. Endogenous peroxidase activity was suppressed by treating the slides with 3% hydrogen peroxide for 10 minutes. After washing steps slides were incubated for 1 hour at room temperature with antibodies to human FOXO3a (Cell Signaling Technology, USA 1:400) and survivin (Cell Signaling Technology, USA 1:400). For BRCA1-IRIS staining, slides were incubated overnight at 4° C. with monoclonal BRCA1-IRIS antibody at a 1:75 dilution. […]
smiles,measurement,setting,value
N.N.[Cl][Pt][Cl] [cisplatin],IC50,"[1]; SKOV3, BRCA1-IRIS silencing (siRNA) 48 hours",~2.5 µM
same,IC50,"[1]; SKOV3, ErbB2 inhibitor (CP-724714) 24 hours",~30 µM
same,IC50,"[1]; SKOV3, IRIS peptide 24 hours",~7.5 µM
same,IC50,"[1]; SKOV3, TrkB inhibitor (K252a) 24 hours",~50 µM
same,IC50,"[1]; SKOV3, siErbB2 transfected 48 hours",~7.5 µM
same,IC50,"[1]; SKOV3, siLuc transfected 48 hours",> 50 µM
same,IC50,"[1]; SKOV3, siTrkB transfected 48 hours",~20 µM
same,IC50,"[1]; SKOV3, vehicle treated 24 hours",> 50 µM
same,BRCA1-IRIS expression in HOSE cells,[2],induced
same,"expression of BRCA1-IRIS, TrkB, ErbB2, AKT, p-AKT, p-FOXO, Cyclin D1, Bcl-2 and survivin",[3],increased expression
same,reduction in tumor size,[4],~40%
same,BRCA1-IRIS and survivin staining of remaining tumor,[5],increased IRIS and survivin expression
